From US10428081B2, “EGFR inhibitor, preparation method and use thereof” (Shanghai Hansoh Biomedical Co., Ltd., priority 2014, dated 2019)
Like-named read-outs stand apart in the source and are kept apart here.

Columns and labels:
wild-type EGFR enzyme = wild-type EGFR enzyme (Homo sapiens, UniProt P00533); assay: Enzymologic experiment of wild-type (WT) EGFR (TR-FRET); format: biochemical; details: ATP 0.1 to 5 uM
Experimental: 2. Enzymologic Experiment of Wild-Type (WT) EGFR
In this experiment, the inhibitory effect of compounds on wild-type EGFR enzyme was tested by a fluorescence resonance energy transfer (TR-FRET) method, and the half maximal inhibitory concentration IC50 of the compounds on enzymatic activity was determined.
1) 1 to 5 μL of wild-type EGFR enzyme solution was added to a 384-well plate, and the final concentration of the enzyme was 0.1 to 1 nM.
(§1) 2) 1 to 5 μL of diluted solution in gradient of the compound was added.
(§2) 3) The mixture was incubated for 10 minutes at room temperature.
(§3) 6) 5 μL of EDTA stop solution was added to terminate the reaction for 5 minutes.
7) 5 μL of a test solution containing the labeled antibody was added, and the mixture was incubated at room temperature for 1 hour.
9) The inhibition rates were calculated from the fluorescence signal values.
(§4) 10) The IC50 of the compound was obtained by curve fitting according to the inhibition rates at different concentrations.

[1] = molecular target: exon 20 T790M mutant-type EGFR enzyme (Homo sapiens, UniProt P00533, T790M); assay: Enzymologic experiment of T790M mutant-type EGFR (TR-FRET); format: biochemical; details: for IC50: T790M EGFR enzyme, TR-FRET, ATP 1 to 10 uM; for Selectivity of wild-type/mutant-type: ratio WT IC50 / T790M IC50, enzyme
exon 20 T790M mutant-type EGFR enzyme, sequence (P00533 25-1210 T790M): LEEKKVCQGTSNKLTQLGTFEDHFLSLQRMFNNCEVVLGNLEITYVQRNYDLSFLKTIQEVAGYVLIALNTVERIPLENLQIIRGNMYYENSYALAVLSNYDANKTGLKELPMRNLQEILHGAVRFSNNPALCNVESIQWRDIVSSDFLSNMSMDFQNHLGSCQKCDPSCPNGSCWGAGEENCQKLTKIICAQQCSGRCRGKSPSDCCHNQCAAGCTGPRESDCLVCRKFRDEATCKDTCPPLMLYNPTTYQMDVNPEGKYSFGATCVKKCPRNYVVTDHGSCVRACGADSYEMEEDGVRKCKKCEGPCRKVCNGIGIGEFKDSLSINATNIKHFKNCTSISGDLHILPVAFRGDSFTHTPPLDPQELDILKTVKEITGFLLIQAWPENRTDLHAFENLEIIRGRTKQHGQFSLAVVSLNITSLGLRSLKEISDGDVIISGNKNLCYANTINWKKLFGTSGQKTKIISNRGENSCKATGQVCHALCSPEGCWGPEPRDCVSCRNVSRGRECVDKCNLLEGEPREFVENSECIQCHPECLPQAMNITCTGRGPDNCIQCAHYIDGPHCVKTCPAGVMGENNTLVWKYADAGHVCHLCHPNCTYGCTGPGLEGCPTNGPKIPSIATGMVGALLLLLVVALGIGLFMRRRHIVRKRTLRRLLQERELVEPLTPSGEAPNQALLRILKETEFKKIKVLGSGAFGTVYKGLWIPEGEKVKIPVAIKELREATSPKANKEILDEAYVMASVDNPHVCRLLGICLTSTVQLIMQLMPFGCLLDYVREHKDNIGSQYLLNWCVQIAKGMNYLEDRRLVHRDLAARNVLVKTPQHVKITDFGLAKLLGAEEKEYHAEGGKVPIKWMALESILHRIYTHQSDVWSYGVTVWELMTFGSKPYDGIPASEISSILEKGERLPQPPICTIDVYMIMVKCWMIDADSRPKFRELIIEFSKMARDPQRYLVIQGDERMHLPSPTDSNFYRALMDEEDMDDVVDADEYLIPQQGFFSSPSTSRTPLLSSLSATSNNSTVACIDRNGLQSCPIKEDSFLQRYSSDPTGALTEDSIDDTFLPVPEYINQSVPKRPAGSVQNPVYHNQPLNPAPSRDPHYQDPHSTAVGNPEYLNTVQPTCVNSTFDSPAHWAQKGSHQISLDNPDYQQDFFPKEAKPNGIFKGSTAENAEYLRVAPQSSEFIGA
Experimental: as §1, §2, §3
7) […] of a test solution containing the labeled antibody was added, and the mixture was incubated at room temperature for 1 hour.
9) The inhibition rates were calculated according to the fluorescence signal values.
as §4

A431 cells = assay: Inhibition of A431 cell proliferation (CellTiter-Glo); format: cell-based; details: read-out: EGFR IC50 (nM) A431
Experimental: 4. Experiment on the Inhibition of A431 Cell Proliferation
In this experiment, the inhibitory effect of the compounds on A431 cell proliferation was tested by a CellTiter-Glo method, and the half maximal inhibitory concentration (IC50) of the compounds on the activity of cell proliferation was determined.
The culture plate was incubated in the incubator for 16 to 24 hours (37° C., 5% CO2).
(§5) 2) Different concentrations of the test compound in a gradient dilution were added to the cells in the culture plate. The culture plate was incubated in an incubator for 72 hours (37° C., 5% CO2).
3) 50 to 100 μL of CellTiter-Glo reagent was added to each well. Then the culture plate was shaken for 10 minutes, and left to stand at room temperature for 10 minutes.
(§6) 4) The chemiluminescence signal values of each plate were determined by a microplate reader.
5) The inhibition rates were calculated according to the chemiluminescence signal values. 6) The IC50 of the compound was obtained by curve fitting according to the inhibition rates at different concentrations.

NCI-H1975 cells = assay: Inhibition of NCI-H1975 cell proliferation (CellTiter-Glo); format: cell-based; details: for IC50: NCI-H1975 cell proliferation, 72 hours, CellTiter-Glo, read-out: EGFR IC50 (nM) H1975; for Selectivity of wild-type/mutant-type: ratio A431 IC50 / H1975 IC50, cells
Experimental: 3. Experiment on the Inhibition of NCI-H1975 Cell Proliferation
In this experiment, the inhibitory effect of the compounds on NCI-H1975 cell proliferation was tested by a CellTiter-Glo method, and the half maximal inhibitory concentration (IC50) of the compounds on the activity of cell proliferation was determined.
The culture plate was incubated in an incubator for 16 to 24 hours (37° C., 5% CO2).
as §5
3) 50 to 100 μL of CellTiter-Glo reagent was added to each well. Then, the culture plate was shaken for 10 minutes, and left to stand at room temperature for 10 minutes.
as §6
5) The inhibition rates were calculated according to the chemiluminescence signal values.
6) The IC50 of the compound was obtained by curve fitting according to the inhibition rates at different concentrations.

wild-type EGFR enzyme, sequence (P00533 25-1210): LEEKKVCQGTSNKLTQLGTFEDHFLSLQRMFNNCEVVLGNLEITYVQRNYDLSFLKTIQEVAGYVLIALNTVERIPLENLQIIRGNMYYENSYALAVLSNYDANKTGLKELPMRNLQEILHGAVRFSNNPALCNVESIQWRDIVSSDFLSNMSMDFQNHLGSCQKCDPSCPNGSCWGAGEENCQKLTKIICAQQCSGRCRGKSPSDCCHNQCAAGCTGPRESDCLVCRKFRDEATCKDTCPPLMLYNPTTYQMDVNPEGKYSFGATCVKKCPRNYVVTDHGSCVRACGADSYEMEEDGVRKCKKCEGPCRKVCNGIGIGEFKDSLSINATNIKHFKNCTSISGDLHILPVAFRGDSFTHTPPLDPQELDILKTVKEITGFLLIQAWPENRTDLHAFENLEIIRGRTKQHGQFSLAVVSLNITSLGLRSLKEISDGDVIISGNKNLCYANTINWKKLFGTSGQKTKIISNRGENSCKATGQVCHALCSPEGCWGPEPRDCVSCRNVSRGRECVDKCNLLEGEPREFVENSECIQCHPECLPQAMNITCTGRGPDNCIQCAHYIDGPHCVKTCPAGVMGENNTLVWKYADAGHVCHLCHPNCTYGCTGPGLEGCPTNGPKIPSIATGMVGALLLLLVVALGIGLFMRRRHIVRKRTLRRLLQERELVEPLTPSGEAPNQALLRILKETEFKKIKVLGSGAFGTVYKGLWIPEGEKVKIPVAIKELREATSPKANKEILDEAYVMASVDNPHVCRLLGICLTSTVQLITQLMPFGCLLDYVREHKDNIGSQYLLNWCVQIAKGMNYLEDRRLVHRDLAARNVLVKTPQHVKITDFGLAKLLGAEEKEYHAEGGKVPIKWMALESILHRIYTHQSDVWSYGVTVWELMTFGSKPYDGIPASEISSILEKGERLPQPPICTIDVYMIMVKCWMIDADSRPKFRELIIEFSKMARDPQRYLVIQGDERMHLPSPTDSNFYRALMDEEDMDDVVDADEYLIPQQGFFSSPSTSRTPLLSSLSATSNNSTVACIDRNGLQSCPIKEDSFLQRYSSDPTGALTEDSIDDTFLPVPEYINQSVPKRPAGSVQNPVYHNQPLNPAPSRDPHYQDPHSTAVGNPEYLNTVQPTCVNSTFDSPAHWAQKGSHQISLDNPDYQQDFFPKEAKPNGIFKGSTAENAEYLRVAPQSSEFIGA

| IC50 (wild-type EGFR enzyme) [nM] | IC50 [1] [nM] | Selectivity of wild-type/mutant-type [1] | IC50 (A431 cells; Homo sapiens, A-431, 72 h) [nM] | IC50 (NCI-H1975 cells; Homo sapiens, NCI-H1975, 72 h) [nM] | IC50 (A431 cells; 72 hours) [nM] | IC50 (NCI-H1975 cells) [nM] | Compound | Selectivity of wild-type/mutant-type (NCI-H1975 cells) |
| --- | --- | --- | --- | --- | --- | --- | --- | --- |
| 143 | 9.26 | 15 | 224 | 1.36 | – | – | C=CC(=O)Nc1cc(Nc2nccc(-c3cn(C)c4ccccc34)n2)c(OC(F)F)cc1N1CCN(C)CC1 [Example 2, N-(4-(difluoromethoxy)-5-((4-(1-methyl-1H-indol-3-yl)pyrimidin-2-yl)amino)-2-(4-methylpiperazine-1-yl)phenyl)acrylamide] | 164 |
| 3.5 | 0.4 | 8.75 | 348 | 2.09 | – | – | C=CC(=O)Nc1cc(Nc2nccc(-n3ncc4cc(OCCOC)ccc43)n2)c(OC)cc1N(C)CCN(C)C [Example 121, N-(2-((2-(dimethylamino)ethyl)(methyl)amino)-4-methoxy-5-((4-(5-(2-methoxyethoxy)-1H-indazol-1-yl)pyrimidin-2-yl)amino)phenyl)acrylamide] | 166.41 |
| 2.77 | 0.42 | 6.60 | – | – | 314 | 5.65 | C=CC(=O)Nc1cc(Nc2nccc(-n3nc(C4CC4)c4ccccc43)n2)c(OC)cc1N(C)CCN(C)C [Example 111, N-(5-((4-(3-cyclopropyl-1H-indazol-1-yl)pyrimidin-2-yl)amino)-2-((2-(dimethylamino)ethyl)(methyl)amino)-4-methoxyphenyl)acrylamide] | 55.52 |
| 15.5 | – | – | 192 | 15.8 | – | – | C=CC(=O)Nc1cc(Nc2nccc(-c3cn(C(C)=O)c4ccccc34)n2)c(OC(F)F)cc1N(C)CCN(C)C [Example 7, N-(5-((4-(1-acetyl-1H-indol-3-yl)pyrimidin-2-yl)amino)-4-(difluoromethoxy)-2-((2-(dimethylamino)ethyl)(methyl)amino)phenyl)acrylamide] | – |
| 6.31 | 1.03 | 6.13 | 406 | 9.52 | – | – | C=CC(=O)Nc1cc(Nc2nccc(-n3ncc4cc(OC)ccc43)n2)c(OC)cc1N(C)CCN1CCCC1 [Example 137, N-(4-methoxy-5-((4-(5-methoxy-1H-indazol-1-yl)pyrimidin-2-yl)amino)-2-(methyl(2-(pyrrolidin-1-yl)ethyl)amino)phenyl)acrylamide] | 42.70 |
| 3.66 | 1.05 | 3.49 | 115 | 4.91 | – | – | C=CC(=O)Nc1cc(Nc2nccc(-n3cnc4ccccc43)n2)c(OC)cc1N(C)CCN(C)C [Example 120, N-(5-((4-(1H-benzo[d]imidazol-1-yl)pyrimidin-2-yl)amino)-2-((2-(dimethylamino)ethyl)(methyl)amino)-4-methoxyphenyl)acrylamide] | 23.44 |
| – | – | – | 350 | 8.72 | – | – | C=CC(=O)Nc1cc(Nc2ncc(Cl)c(-c3cn(C4CC4)c4ccccc34)n2)c(OC)cc1N(C)CCN(C)C [Example 100, N-(5-((5-chloro-4-(1-cyclopropyl-1H-indol-3-yl)pyrimidin-2-yl)amino)-2-((2-(dimethylamino)ethyl)(methyl)amino)-4-methoxyphenyl)acrylamide] | – |
| 26.4 | 8.32 | 3.18 | – | 26.3 | – | – | C=CC(=O)Nc1cc(Nc2nccc(-n3cnc4ccc(C#N)cc43)n2)c(OC)cc1N(C)CCN(C)C [Example 62, N-(5-((4-(6-cyano-1H-benzo[d]imidazol-1-yl)pyrimidin-2-yl)amino)-2-((2-(dimethylamino)ethyl)(methyl)amino)-4-methoxyphenyl)acrylamide] | – |
| 6.62 | 0.6 | 11.1 | – | 7.51 | – | – | C=CCn1cc(-c2ccnc(Nc3cc(NC(=O)C=C)c(N(C)CCN(C)C)cc3OC)n2)c2ccccc21 [Example 141, N-(5-((4-(1-allyl-1H-indol-3-yl)pyrimidin-2-yl)amino)-2-((2-(dimethylamino)ethyl)(methyl)amino)-4-methoxyphenyl)acrylamide] | – |
| 116 | 1.08 | 107.1 | – | 4.52 | – | – | C=CC(=O)Nc1cc(Nc2ncc(C(F)(F)F)c(-n3ncc4cc(C#N)ccc43)n2)c(OC)cc1N(C)CCN(C)C [Example 52, N-(5-((4-(5-cyano-1H-indazol-1-yl)-5-(trifluoromethyl)pyrimidin-2-yl)amino)-2-((2-(dimethylamino)ethyl)(methyl)amino)-4-methoxyphenyl)acrylamide] | – |
| – | – | – | 97 | – | – | – | C=CC(=O)Nc1cc(Nc2ncc(Cl)c(-c3cn(C4COC4)c4ccccc34)n2)c(OC)cc1N(C)CCN(C)C [Example 130, N-(5-((5-chloro-4-(1-(oxetan-3-yl)-1H-indol-3-yl)pyrimidin-2-yl)amino)-2-((2-(dimethylamino)ethyl)(methyl)amino)-4-methoxyphenyl)acrylamide] | – |
| 15.4 | 1.51 | 10.17 | – | 34 | – | – | C=CCn1cc(-c2ccnc(Nc3cc(NC(=O)C=C)c(N(C)CCNC)cc3OC)n2)c2ccccc21 [Example 126, N-(5-((4-(1-allyl-1H-indol-3-yl)pyrimidin-2-yl)amino)-4-methoxy-2-(methyl(2-(methylamino)ethyl)amino)phenyl)acrylamide] | – |
| 5.35 | 0.51 | – | – | 10.9 | – | – | C#Cc1ccc2c(-c3ccnc(Nc4cc(NC(=O)C=C)c(N(C)CCN(C)C)cc4OC)n3)cn(C)c2c1 [Example 95, N-(2-((2-(dimethylamino)ethyl)(methyl)amino)-5-((4-(6-ethynyl-1-methyl-1H-indol-3-yl)pyrimidin-2-yl)amino)-4-methoxyphenyl)acrylamide] | – |
| 64.1 | 2.74 | 23.39 | – | 24.6 | – | – | C=CC(=O)Nc1cc(Nc2nccc(-c3cn(C)c4cc(P(C)(C)=O)ccc34)n2)c(OC(F)F)cc1N(C)CCN(C)C [Example 11, N-(4-(difluoromethoxy)-2-((2-(dimethylamino)ethyl)(methyl)amino)-5-((4-(6-(dimethylphosphoryl)-1-methyl-1H-indol-3-yl)pyrimidin-2-yl)amino)phenyl)acrylamide] | – |
| 1.54 | – | – | 208 | 2.2 | – | – | C=CC(=O)Nc1cc(Nc2nccc(-c3cn(CCO)c4ccccc34)n2)c(OC(F)F)cc1N(C)CCN(C)C [Example 6, N-(4-(difluoromethoxy)-2-((2-(dimethylamino)ethyl)(methyl)amino)-5-((4-(1-(2-hydroxyethyl)-1H-indol-3-yl)pyrimidin-2-yl)amino)phenyl)acrylamide] | – |
| 4.34 | 0.47 | 9.23 | – | 2.32 | – | – | C=CC(=O)Nc1cc(Nc2nccc(-c3nn(C4CC4)c4ccccc34)n2)c(OC)cc1N(C)CCN(C)C [Example 119, N-(5-((4-(1-cyclopropyl-1H-indazol-3-yl)pyrimidin-2-yl)amino)-2-((2-(dimethylamino)ethyl)(methyl)amino)-4-methoxyphenyl)acrylamide] | – |
